Measured values as given in patent publication US9433228B2, “Method for the production of multiple-unsaturated fatty acids in transgenic organisms” (BASF Plant Science GmbH, priority 2003, dated 2016).
Like-named read-outs stand apart in the source and are kept apart here.

Experiments:
ELO(Ci) = ELO(Ci) expressed in yeast, conversion of starting materials; type: cell-based, Ciona intestinalis; details: fed at in each case 250 μM
Protocol: (holding). […] Biochem. […] Thereafter, the FAMEs were analyzed via GLC.

ELO(XI) = ELO(XI) expressed in yeast, conversion of starting materials; type: cell-based, Xenopus laevis; details: fed at in each case 250 μM
Protocol: Thereafter, the FAMEs were analyzed via GLC.

PtELO6 (Δ6-elongase) = assay: PtELO6 expressed in yeast, feeding experiment; details: for conversion of fatty acid fed: fed to yeast with pYES2-PtELO6; for % Elongation: fatty acid added at 250 μm
Protocol: The PCR products were incubated for 30 minutes at 21° C. with the yeast expression vector pYES2.1-TOPO (Invitrogen) following the manufacturer's instructions. The PCR product (see SEQ ID NO: 192) was ligated into the vector by means of a T-overhang and the activity of a topoisomerase (Invitrogen). After the incubation, E. coli DH5α cells were transformed. Suitable clones were identified by PCR, the plasmid DNA was isolated by means of the Qiagen DNAeasy kit and verified by sequencing. The correct sequence was then transformed into the Saccharomyces strain INVSc1 (Invitrogen) by electroporation (1500 V). As a control, the blank vector pYES2.1 was transformed in parallel. Thereafter, the yeasts were plated of minimal dropout uracil medium supplemented with 2% glucose. Cells which were capable of growing in the medium without uracil thus comprise the corresponding plasmids pYES2.1 and pYES2.1-PtELO6. After the selection, in each case two transformants were chosen for the further functional expression.
The yeast cells from the main cultures were harvested by centrifugation (100×g, 5 min, 20° C.) and washed with 100 mM NaHCO3, pH 8.0 to remove residual medium and fatty acids. Starting with the yeast cell sediments, fatty acid methyl esters (FAMEs) were prepared by acid methanolysis. To this end, the cell sediments were incubated for one hour at 80° C. together with 2 ml of 1 N methanolic sulfuric acid and 2% (v/v) of dimethoxypropane. The FAMEs were extracted twice with petroleum ether (PE). To remove nonderivatized fatty acids, the organic phases were washed in each case once with 2 ml of 100 mM NaHCO3, pH 8.0 and 2 ml of distilled water. Thereafter, the PE phases were dried with Na2SO4, evaporated under argon and taken up in 100 μl of PE. The samples were separated on a DB-23 capillary column (30 m, 0.25 mm, 0.25 μm, Agilent) in a Hewlett-Packard 6850 gas chromatograph equipped with flame ionization detector. The conditions for the GLC analysis were as follows: the oven temperature was programmed from 50° C. to 250° C. with a rate of 5° C./min and finally 10 min at 250° C. (holding).
The signals were identified by comparing the retention times with corresponding fatty acid standards (Sigma).
Feeding experiment: fatty acids (in bold) were added at in each case 250 μm.
The yeasts which had been transformed with the vector pYES2-PtELO6 were grown in minimal medium in the presence of the fatty acids stated. The fatty acid methyl esters were synthesized by subjecting intact cells to acid methanolysis. Thereafter, the FAMEs were analyzed via GLC.

OtElo2.1 (Δ6-elongase) = type: cell-based, Ostreococcus tauri
[1] = system: Δ6-desaturase OtDes6.1, Δ6-elongase PSE1 and Δ5-desaturase PtD5; assay: Reconstitution of ARA and EPA pathways in yeast: OtDes6.1 with PSE1 and PtD5; type: cell-based, Saccharomyces cerevisiae; details: for elongation by Δ6-elongase PSE1 to DHGLA and DHSTA: products of OtDes6.1 from LA and ALA (FIG. 21)
Excerpt: The subsequent desaturation by the Δ5-desaturase PtD5 to give ARA and EPA, respectively, is also problem-free. Approximately 25-30% of the elongase product is desaturated (FIGS. 21 B and D).

TL16y2 = TL16y2 expressed in yeast, feeding experiments; type: cell-based, Thraustochytrium ssp.; details: in comparison with the control
Protocol: The substrate specificity of BioTaurELO1 was determined after expression and feeding of various fatty acids (FIG. 6). […] After the fatty acids had been extracted from the yeasts, they were transmethylated and separated by gas chromatography. The elongation products obtained from the two fatty acids which had been fed are identified by arrows.
The functionality and substrate specificity of TL16y2 was determined after expression and feeding of various fatty acids. […] The feeding experiments were carried-out in the same manner as described for BioTaurELO1. The substrates fed can be detected in large amounts in all transgenic yeasts. […] This means that functional expression of the gene TL16y2 has been possible.

TpELO3 (Δ6-elongase) = type: cell-based, Thalassiosira pseudonana
OtElo2 (Δ6-elongase) = type: cell-based, Ostreococcus tauri
[2] = system: OmElo3, EgD4 and P. tricornutum Δ5-desaturase (PtD5); assay: Reconstitution of DHA synthesis in yeast: coexpression of OmElo3, EgD4 and PtD5; type: cell-based, Saccharomyces cerevisiae; details: fed 18:4 ω3
Protocol: The reconstitution of the biosynthesis of DHA (22:6 ω3) was carried out starting from EPA (20:5 ω3) or stearidonic acid (18:4 ω3) by coexpressing OmElo3 together with the Euglena gracilis Δ4-desaturase or the Phaeodactylum tricomutum Δ5-desaturase and the Euglena gracilis Δ4-desaturase. To this end, the expression vectors pYes2-EgD4 and pESCLeu-PtD5 were additionally constructed. The abovementioned yeast strain which is already transformed with pYes3-OtElo3 (SEQ ID NO: 55), was transformed further with pYes2-EgD4, or simultaneously with pYes2-EgD4 and pESCLeu-PtD5. […] The cultures were incubated for a further 120 hours at 15° C.
In a further coexpression experiment, OmElo3, EgD4 and a P. tricornutum Δ5-desaturase (PtD5) were expressed together. The transgenic yeasts were fed stearidonic acid (18:4 ω3) and they were analyzed (FIG. 4). The fatty acid fed, 18:4 ω3, was elongated by OmElo3 to give 20:4 ω3 (60% elongation). The latter was desaturated by PtD5 to give 20:5 ω3. The PtD5 activity was 15%. Moreover, it was possible to elongate 20:5 ω3 by OmElo3 to give 22:5 ω3. Thereafter, the newly synthesized 22:5 ω3 was desaturated to 22:6 ω3 (DHA). Up to 0.7% of DHA was obtained in these experiments.

OtElo1.2 (Δ5-elongase) = type: cell-based, Ostreococcus tauri; details: Table 15; yeast with pOTE1.2
OtElo1 (Δ5-elongase) = type: cell-based, Ostreococcus tauri; details: Table 15; yeast with pOTE1
TpELO1 (Δ5-elongase) = assay: TpELO1 expressed in yeast, feeding experiments; details: 250 μM fatty acid fed
Protocol: The PCR products were incubated for 30 minutes at −21° C. with the yeast expression vector pYES2.1-TOPO (Invitrogen) following the manufacturer's instructions. The PCR product was ligated into the vector by means of a T-overhang and the activity of a topoisomerase (Invitrogen). After the incubation, E. coli DH5α cells were transformed. Suitable clones were identified by PCR, the plasmid DNA was isolated by means of the Qiagen DNAeasy kit and verified by sequencing. The correct sequence was then transformed into the Saccharomyces strain INVSc1 (Invitrogen) by electroporation (1500 V). As a control, the blank vector pYES2.1 was transformed in parallel. Thereafter, the yeasts were plated out on minimal dropout uracil medium supplemented with 2% glucose. Cells which were capable of growing in the medium without uracil thus comprise the corresponding plasmids pYES2.1, pYES2.1-TpELO1, pYES2.1-ELO2 and pYES2.1-TpELO3. After the selection, in each case two transformants were chosen for the further functional expression.
The yeast cells from the main cultures were harvested by centrifugation (100×g, 5 min, 20° C.) and washed with 100 mM NaHCO3, pH 8.0 to remove residual medium and fatty acids. […]
The yeasts which had been transformed with the vector pYES2-TpELO1 were grown in minimal medium in the presence of the fatty acids stated. […] Thereafter the FAMEs were analyzed by GLC.

OmElo3 = OmElo3 expressed in yeast, feeding of fatty acids, GC of FAMEs; type: cell-based, Oncorhynchus mykiss; details: yeast with pYes3-OmElo3 and blank vector pYes2, fed 20:5 ω3
At3g06470 = At3g06470 expressed in yeast, elongation of EPA; details: feeding with 250 uM EPA
Excerpt: (§1) To characterize the function of the A. thaliana desaturases, the open reading frame of the DNA in question is cloned downstream of the galactose-inducible GALL promoter of pYES2.1/V5-His-TOPO (Invitrogen), giving rise to the corresponding pAt60 and pAt70 clones.
(§2) The Saccharomyces cerevisiae strain 334 is transformed with the vectors pAt60 and pAt70, respectively by electroporation (1500 V). A yeast which is transformed with the blank vector pYES2.1 is used for control purposes. The transformed yeasts are selected on complete minimal medium (CMdum) agar plates supplemented with 2% glucose, but lacking uracil. After the selection, in each case three transformants are chosen for the further functional expression.
(§3) To express the At elongases, precultures of in each case 5 ml of CMdum liquid medium supplemented with 2% (w/v) raffinose, but without uracil, were inoculated with the selected transformants and incubated for 2 hours at 30° C., 200 rpm.
(§4) 5 ml of CMdum liquid medium (without uracil) supplemented with 2% of raffinose and 300 μM various fatty acids were then inoculated with the precultures to an OD600 of 0.05. Expression was induced by the addition of 2% (w/v) galactose. The cultures were incubated for a further 96 hours at 20° C. […]

OmELO2 = OmELO2 expressed in yeast, feeding of fatty acids; type: cell-based, Oncorhynchus mykiss; details: expression in yeast
At3g06460 = At3g06460 expressed in yeast, elongation of EPA; details: feeding with 250 uM EPA
Excerpt: as §1, §2, §3, §4

## CCCCCCCCCCCCCCCC(=O)O [16:0, palmitic acid]
ELO(Ci)
  Conversion of the starting materials by ELO(Ci) in %: 0%
ELO(XI)
  Conversion of the starting materials by ELO(XI) in %: 3%

## CCCCCCCCCCCCCCCCCC(=O)O [18:0, stearic acid]
ELO(Ci)
  Conversion of the starting materials by ELO(Ci) in %: 0%
ELO(XI)
  Conversion of the starting materials by ELO(XI) in %: 2%

## CCCCCCC=CCCCCCCCCCC(=O)O [18:1^Δ11]
PtELO6 (Δ6-elongase)
  conversion of fatty acid fed: not converted

## CCCCC/C=C\C/C=C\CCCCCCCC(=O)O [18:2^Δ9,12, linoleic acid]
PtELO6 (Δ6-elongase)
  % Elongation: 0.99%

## CCCCC/C=C\C/C=C\CC/C=C\CCCC(=O)O [18:3^Δ5,9,12, pinolenic acid]
ELO(Ci)
  Conversion of the starting materials by ELO(Ci) in %: 38%
ELO(XI)
  Conversion of the starting materials by ELO(XI) in %: 13%

## CCCCC/C=C\C/C=C\C/C=C\CCCCC(=O)O [18:3^Δ6,9,12, γ-linolenic acid]
OtElo2.1 (Δ6-elongase)
  Conversion rate (in %) OtELO2.1: 55.7%
[1]
  elongation by Δ6-elongase PSE1 to DHGLA and DHSTA: elongated almost quantitatively
TL16y2; 250 μM fatty acid fed
  % conversion rate: 74.9%
TpELO3 (Δ6-elongase)
  % conversion rate: 75%
OtElo2 (Δ6-elongase)
  Conversion rate (in %) OtElo2: 15.3%

## CC/C=C\C/C=C\C/C=C\C/C=C\CCCCC(=O)O [18:4^Δ6,9,12,15, stearidonic acid]
OtElo2.1 (Δ6-elongase); Table 16, yeast with pOTE2.1
  Conversion rate (in %) OtELO2.1: 70.4%
[1]
  elongation by Δ6-elongase PSE1 to DHGLA and DHSTA: elongated almost quantitatively
[2]
  elongation by OmElo3 to 20:4 ω3: 60%
PtELO6 (Δ6-elongase)
  % Elongation: 76.32%
TL16y2; 250 μM fatty acid fed
  % conversion rate: 79.4%
TpELO3 (Δ6-elongase); 250 μM of each fatty acid fed
  % conversion rate: 85%
OtElo2 (Δ6-elongase); Table 16, yeast with pOTE2
  Conversion rate (in %) OtElo2: 21.1%

## CCCCC/C=C\C/C=C\C/C=C\CCCCCCC(=O)O [20:3^Δ8,11,14, dihomo-γ-linolenic acid]
ELO(Ci)
  Conversion of the starting materials by ELO(Ci) in %: 10%
ELO(XI)
  Conversion of the starting materials by ELO(XI) in %: 5%
PtELO6 (Δ6-elongase)
  conversion of fatty acid fed: not converted

## CC/C=C\C/C=C\C/C=C\CCCCCCCCCC(=O)O [20:3^Δ11,14,17]
ELO(Ci)
  Conversion of the starting materials by ELO(Ci) in %: 8%
PtELO6 (Δ6-elongase)
  conversion of fatty acid fed: not converted

## CCCCC/C=C\C/C=C\C/C=C\C/C=C\CCCC(=O)O [20:4^Δ5,8,11,14, arachidonic acid]
ELO(Ci)
  Conversion of the starting materials by ELO(Ci) in %: 10%
OtElo1.2 (Δ5-elongase)
  Conversion rate (in %) OtElo1.2: 38.0%
ELO(XI)
  Conversion of the starting materials by ELO(XI) in %: 15%
OtElo1 (Δ5-elongase)
  Conversion rate (in %) OtElo1: 10.8 ± 0.6%
TpELO1 (Δ5-elongase)
  % conversion rate: 1.7%
TL16y2; 250 μM fatty acid fed
  % conversion rate: 20.3%
TpELO3 (Δ6-elongase); 250 μM of each fatty acid fed
  % conversion rate: 0%

## CC/C=C\C/C=C\C/C=C\C/C=C\C/C=C\CCCC(=O)O [20:5^Δ5,8,11,14,17, eicosapentaenoic acid]
OtElo1.2 (Δ5-elongase)
  Conversion rate (in %) OtElo1.2: 68.6%
OtElo1 (Δ5-elongase)
  Conversion rate (in %) OtElo1: 46.8 ± 3.6%
TpELO1 (Δ5-elongase)
  % conversion rate: 12.2%
TL16y2; 50 μM fatty acid fed
  % conversion rate: 41%
TL16y2; 250 μM fatty acid fed
  % conversion rate: 8%
TpELO3 (Δ6-elongase); 250 μM of each fatty acid fed
  % conversion rate: 0%
OmElo3
  elongation of 20:5 ω3 to 22:5 ω3: 65%

## CCCCCC=CCC=CCC=CCC=CCCCCCC(=O)O [22:4^Δ7,10,13,16, docosatetraenoic acid]
ELO(Ci)
  Conversion of the starting materials by ELO(Ci) in %: 0%
ELO(XI)
  Conversion of the starting materials by ELO(XI) in %: 0%
PtELO6 (Δ6-elongase)
  conversion of fatty acid fed: not converted

## eicosadienoic acid [20:2^Δ11,14]
PtELO6 (Δ6-elongase)
  conversion of fatty acid fed: not converted

B1: PtD5: Phaeodactylum tricornutum Δ5-desaturase, SEQ ID NO: 5 (protein, listed as Phaeodactylum tricornutum)
chain: MAPDADKLRQRQTTAVAKHNAATISTQERLCSLSSLKGEEVCIDGIIYDLQSFDHPGGETIKMFGGNDVTVQYKMIHPYHTEKHLEKMKRVGKVTDFVCEYKFDTEFEREIKREVFKIVRRGKDFGTLGWFFRAFCYIAIFFYLQYHWVTTGTSWLLAVAYGISQAMIGMNVQHDANHGATSKRPWVNDMLGLGADFIGGSKWLWQEQHWTHHAYTNHAEMDPDSFGAEPMLLFNDYPLDHPARTWLHRFQAFFYMPVLAGYWLSAVFNPQILDLQQRGALSVGIRLDNAFIHSRRKYAVFWRAVYIAVNVIAPFYTNSGLEWSWRVFGNIMLMGVAESLALAVLFSLSHNFESADRDPTAPLKKTGEPVDWFKTQVETSCTYGGFLSGCFTGGLNFQVEHHLFPRMSSAWYPYIAPKVREICAKHGVHYAYYPWIHQNFLSTVRYMHAAGTGANWRQMARENPLTGRA
modifications: CDS (1)..(1410) delta5-desaturase
[1]; to ARA and EPA (FIGS. 21 B and D)
  share of the elongase product desaturated by Δ5-desaturase PtD5: 25-30%
[2]
  PtD5 activity (desaturation of 20:4 ω3 to 20:5 ω3): 15%

B2: At3g06470: Arabidopsis thaliana elongase, SEQ ID NO: 137 (protein, listed as Arabidopsis thaliana)
chain: MASIYSSLTYWLVNHPYISNFTWIEGETLGSTVFFVSVVVSVYLSATFLLRSAIDSLPSLSPRILKPITAVHSLILCLLSLVMAVGCTLSITSSHASSDPMARFLHAICFPVDVKPNGPLFFWAQVFYLSKILEFGDTILIILGKSIQRLSFLHVYHHATVVVMCYLWLRTRQSMFPIALVTNSTVHVIMYGYYFLCAVGSRPKWKRLVTDCQIVQFVFSFGLSGWMLREHLFGSGCTGIWGWCFNAAFNASLLALFSNFHSKNYVKKPTREDGKKSD
modifications: CDS (1)..(837) delta5-elongase
At3g06470
  Conversion rate of EPA: At3g06470: 4.1%

B3: OmELO2: Oncorhynchus mykiss elongase gene product, SEQ ID NO: 51 (protein)
chain: MASTWQSVQSMRQWILENGDKRTDPWLLVYSPMPVAIIFLLYLGVVWAGPKLMKRREPVDLKAVLIVYNFAMVCLSVYMFHEFLVTSLLSNYSYLCQPVDYSTSPLAMRMAKVCWWFFFSKVIELADTVFFILRKKNSQLTFLHVYHHGTMIFNWWAGVKYLAGGQSFFIGLLNTFVHIVMYSYYGLAALGPHTQKYLWWKRYLTSLQLLQFVLLTTHTGYNLFTECDFPDSMNAVVFAYCVSLIALFSNFYYQSYLNRKSKKT
modifications: Oncorhynchus mykiss; CDS (1)..(795) delta5-elongase
OmELO2
  elongase activity: no elongase activity

B4: At3g06460: Arabidopsis thaliana elongase, SEQ ID NO: 135 (protein, listed as Arabidopsis thaliana)
chain: MASVYSTLTYWLVHHPYIANFTWTEGETLGSTVFFVFVVVSLYLSATFLLRYTVDSLPTLGPRILKPITAVHSLILFLLSLTMAVGCTLSLISSSDPKARLFDAVCFPLDVKPKGPLFFWAQVFYLSKILEFVDTLLIILNKSIQRLSFLHVYHHATVVILCYLWLRTRQSMFPVGLVLNSTVHVIMYGYYFLCAIGSRPKWKKLVTNFQMVQFAFGMGLGAAWMLPEHYFGSGCAGIWTVYFNGVFTASLLALFYNFHSKNYEKTTTSPLYKIESFIFIHGERWANKAITLFSKKND
modifications: CDS (1)..(897) delta5-elongase
At3g06460
  Conversion rate of EPA: At3g06460: 3.0%
